Assay results published in patent US20260008760A1, “DIPEPTIDYL PEPTIDASE 1 INHIBITORS AND USES THEREOF” (Insmed Incorporated, priority 2024, published 2026).

Experiments:
[1] = target: DPP1 in HL-60 cells (Homo sapiens, UniProt P53634); test: DPP1 Cell Single-Point Percent Inhibition Testing; assay type: cell-based; design: host or cells: HL-60 cells; settings: final compound concentration 5 nM, n = 1
Outline: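 HL-60 cells in unsupplemented RPMI preincubated 60 min at 37 °C with test article (5 nM final, 0.1% DMSO), then given cell-permeable H-Gly-Phe-AFC (100 μM final) for 30 min. Fluorescence at 400/505 nm; percent inhibition versus vehicle after subtracting cell-free background and 10 μM brensocatib non-specific signal.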

[2] = target: human DPP1 enzyme (Homo sapiens, UniProt P53634); test: Human DPP1 Enzyme Single-Point Percent Inhibition Testing (HL-60 lysate); assay type: biochemical; design: A crude lysate of HL-60 cells (ATCC; Manassas, VA) was used as a source of human DPP1 enzyme; host or cells: HL-60 cells (crude lysate); settings: final compound concentration of 10 nM, 400 μM H-Gly-Arg-AMC, n = 1
Outline: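 Enzyme source was HL-60 cell lysate in MES pH 6.0 buffer with NaCl and DTT, pre-incubated 10 min at 37° C with 10 nM compound (final, 1% DMSO). Cleavage of 400 μM H-Gly-Arg-AMC was followed at 350/450 nm over 90 min at 37° C, and percent inhibition was taken against vehicle wells.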

Chain of human DPP1 enzyme (P53634 25-463): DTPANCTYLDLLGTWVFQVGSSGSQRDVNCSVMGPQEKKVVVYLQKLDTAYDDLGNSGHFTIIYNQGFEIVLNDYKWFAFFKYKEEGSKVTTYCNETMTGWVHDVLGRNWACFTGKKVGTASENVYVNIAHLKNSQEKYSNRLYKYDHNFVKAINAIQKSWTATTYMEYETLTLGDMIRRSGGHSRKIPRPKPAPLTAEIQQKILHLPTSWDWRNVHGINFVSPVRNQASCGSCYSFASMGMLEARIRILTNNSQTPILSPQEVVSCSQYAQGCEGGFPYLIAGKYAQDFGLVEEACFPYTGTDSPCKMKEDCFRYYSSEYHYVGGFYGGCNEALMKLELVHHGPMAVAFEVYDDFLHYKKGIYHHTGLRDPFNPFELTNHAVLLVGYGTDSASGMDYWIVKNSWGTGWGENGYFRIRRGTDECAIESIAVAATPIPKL
Chain of DPP1 in HL-60 cells (P53634 25-463): as above

inhibition at 0.005 µM [1] [%] | inhibition at 0.01 µM [2] [%] | SMILES
≤ 76.5 | ≥ 66.7 | CO[C@H]1CCO[C@H](C(=O)N[C@H](C#N)Cc2ccc(-c3ccc4cnn(C5CCN(C)CC5)c4c3)cc2F)CNC1 [Compound H16]
≤ 76.5 | ≤ 40 | CO[C@H]1CCO[C@H](C(=O)N[C@H](C#N)Cc2ccc(-c3ccc4cnn(C)c4c3)cc2)CNC1 [Compound H17]
≤ 76.5 | ≤ 40 | CO[C@H]1CCO[C@H](C(=O)N[C@H](C#N)Cc2ccc(-c3ccc4nnn(C)c4c3)cc2)CNC1 [Compound H18]
≤ 76.5 | ≥ 66.7 | CO[C@H]1CCO[C@H](C(=O)N[C@H](C#N)Cc2ccc(-c3ccc4cnn(C)c4c3)cc2F)CNC1 [Compound H19]
≤ 76.5 | 40 to 66.7 | CO[C@H]1CCO[C@H](C(=O)N[C@H](C#N)Cc2ccc(-c3ccc4nnn(C)c4c3)cc2F)CNC1 [Compound H20]
≤ 76.5 | ≥ 66.7 | C[C@@H]1NC[C@@H](C(=O)N[C@H](C#N)Cc2ccc(-c3ccc4cnn(C5CCN(C)CC5)c4c3)cc2)OC[C@H]1O [Compound H21]
≤ 76.5 | ≥ 66.7 | C[C@@H]1NC[C@@H](C(=O)N[C@H](C#N)Cc2ccc(-c3ccc4nnn(C)c4c3)cc2)OC[C@H]1O [Compound H24]
≤ 76.5 | ≤ 40 | C[C@@H]1NC[C@@H](C(=O)N[C@H](C#N)Cc2ccc(-c3ccc4cnn(C5CCN(C)CC5)c4c3)cc2)OC[C@@H]1O [Compound H27]
≤ 76.5 | ≥ 66.7 | C[C@@H]1NC[C@@H](C(=O)N[C@H](C#N)Cc2ccc(-c3ccc4cnn(C5CCN(C)CC5)c4c3)cc2F)OC[C@@H]1O [Compound H28]
≤ 76.5 | ≤ 40 | C[C@@H]1NC[C@@H](C(=O)N[C@H](C#N)Cc2ccc(-c3ccc4nnn(C)c4c3)cc2)OC[C@@H]1O [Compound H30]
≤ 76.5 | 40 to 66.7 | C[C@@H]1NC[C@@H](C(=O)N[C@H](C#N)Cc2ccc(-c3ccc4nnn(C)c4c3)cc2F)OC[C@@H]1O [Compound H32]
≤ 76.5 | ≤ 40 | CN1CCC(n2ncc3ccc(-c4ccc(C[C@@H](C#N)NC(=O)[C@@H]5CNCCCCO5)cc4)cc32)CC1 [Compound H33]
≤ 76.5 | ≥ 66.7 | CN1CCC(n2ncc3ccc(-c4ccc(C[C@@H](C#N)NC(=O)[C@@H]5CNCCCCO5)c(F)c4)cc32)CC1 [Compound H34]
≤ 76.5 | ≤ 40 | Cn1ncc2ccc(-c3ccc(C[C@@H](C#N)NC(=O)[C@@H]4CNCCCCO4)cc3)cc21 [Compound H35]
≤ 76.5 | ≤ 40 | Cn1nnc2ccc(-c3ccc(C[C@@H](C#N)NC(=O)[C@@H]4CNCCCCO4)cc3)cc21 [Compound H36]
≤ 76.5 | 40 to 66.7 | Cn1ncc2ccc(-c3ccc(C[C@@H](C#N)NC(=O)[C@@H]4CNCCCCO4)c(F)c3)cc21 [Compound H37]
≤ 76.5 | ≤ 40 | Cn1nnc2ccc(-c3ccc(C[C@@H](C#N)NC(=O)[C@@H]4CNCCCCO4)c(F)c3)cc21 [Compound H38]
≤ 76.5 | 40 to 66.7 | CO[C@@H]1CCNC[C@@H](C(=O)N[C@H](C#N)Cc2ccc(-c3ccn4ccnc4c3)cc2)OC1 [Compound H39]
≤ 76.5 | 40 to 66.7 | COC1CNC[C@@H](C(=O)N[C@H](C#N)Cc2ccc(-c3ccn4ccnc4c3)cc2)OC1 (stereo partly drawn) [Compound H40]
≤ 76.5 | ≤ 40 | CO[C@H]1CCO[C@H](C(=O)N[C@H](C#N)Cc2ccc(-c3ccn4ccnc4c3)cc2)CNC1 [Compound H41]
≤ 76.5 | ≥ 66.7 | C[C@@H]1NC[C@@H](C(=O)N[C@H](C#N)Cc2ccc(-c3ccn4ccnc4c3)cc2)OC[C@H]1O [Compound H42]
